The values that follow come from patent publication US20090010976A1, “Cosmetic or dermopharmaceutical compositions containing kombucha” (SEDERMA, priority 2002, published 2009).

The structures appear in SMILES notation.

The subject of this series is serum albumin. As to the kind of experiment: Anti-glycation effect: serum albumin incubated with fructose, fluorescent 'AGE' (FFI) formation. In kind it is biochemical. The settings on record: one week. As to the method:
Principle: The in vitro model consists in serum albumin incubated with fructose at […]. Glycation is monitored through the formation of fluorescent compounds, generally pentosidines or FFI (furoyl-furanyl-imidazoles.
Protocol: Non-enzymatic glycation between serum albumin and fructose is a slow spontaneous reaction that is accelerated by heat.
In our test, serum albumin (at 2%) and fructose (at 100 mM) were incubated in phosphate buffer medium pH 7.4 at 50° C. for one week. […] The reference (Control) glycation value after one week is determined on the serum albumin and fructose incubation medium. The positive control for glycation inhibition is obtained by incubation in the presence of 0.03% aminoguanidine and the test incubations were conducted in the presence of kombucha at various concentrations.
Results: For each fluorescence value determined, the percentage change on the control is calculated. The results shown in the following table are mean values for n=4 replicates.

As for `N=C(N)NN` [aminoguanidine], the “% 'AGE' decrease (inhibition of 'AGE' production, FFI compounds)” value (aminoguanidine 0.03%, serum albumin 2% + fructose 100 mM, pH 7.4, 50° C., mean of n=4) is recorded as 89 ± 5%. Also, the “Inhibition of glycation, result in words” value (serum albumin + fructose, 50° C.) is reported as “excellent inhibition of glycation”.
